According to patent publication USRE41315E1, “Modulators of dopamine neurotransmission” (NSAB, Filial af NeuroSearch Sweden AB, priority 1999, dated 2010):
Structures can show the parent of a compound that is named as a salt.

Assays:
[1] = In vivo test: pharmacokinetics in the rat
Procedure: To determine oral availability (F); and plasma half life (t1/2) of test compounds of this invention experiments performed in the rat were undertaken. On day one rats were implanted with one catheter in the jugular vein and one catheter in the carotid artery under ketamine anesthesia. On day three test compound is injected the either orally or in the jugular vein catheter. Blood samples are collected during 8 hours from the arterial catheter. The blood samples were heparinized and centrifuged. Plasma is collected from the centrifuged samples and frozen. The levels of test compound were subsequently determined in each sample by means of gas chromatography mass spectrometry (Hewlett-Packard 5972MSD). […]

[2] = system: spontaneous behavior (locomotor activity); test: In vivo test: behavior, spontaneous locomotor activity in non-habituated/nonpretreated rats; conditions: rat; for locomotor activity in nonpretreated rats: 100 μmol/kg s.c., 30-60 min
[3] = system: 3,4-dihydroxyphenyl-acetic acid (DOPAC) in the striatum; test: In vivo test: neurochemistry, 3,4-dihydroxyphenyl-acetic acid in the striatum; conditions: rat, n=4
Excerpt: After the behavioral activity sessions the rats were decapitated and their brains rapidly taken out and put on an ice-cold petri-dish. The limbic forebrain, the striatum, the frontal cortex and the remaining hemispheral parts of each rat were dissected and frozen. Each brain part was subsequently analyzed with respect to its content of monoamines and their metabolites. The monoaminergic indices analyzed were dopamine (DA), 3,4-dihydroxyphenyl-acetic acid (DOPAC), homovanillic acid (HVA), 3-methoxytyramine (3-MT), serotonin (5-HT), 5-hydroxyindole acetic acid (5-HIAA), and noradrenaline (NA). All monoaminergic indices in the dissected tissue were analyzed by means of HPLC with electrochemical detection as described by Svensson K, et al., 1986, Naunyn-Schmiedeberg's Arch Pharmacol 334: 234-245 and references cited therein.

[4] = system: d-amphetamine induced hyperactivity; test: In vivo test: behavior, d-amphetamine induced hyperactivity; conditions: rat, d-amphetamine pretreated, n=4
[5] = system: locomotor activity of habituated rats; test: In vivo test: behavior, locomotor activity of habituated rats

CCCN1CCN(c2ccc(Cl)c(C(F)(F)F)c2)CC1 (as salt: HCl)
melting point: 268 °C

CCCN1CCN(c2cc(C(F)(F)F)ccc2Cl)CC1 (as salt: HCl)
melting point: 234 °C

CCCN1CCN(c2ccc(F)c(C(F)(F)F)c2)CC1 (as salt: HCl)
melting point: 238 °C

CCCN1CCN(c2cc(F)cc(C(F)(F)F)c2)CC1 (as salt: HCl)
melting point: 242 °C

CCCN1CCC(c2ccc(Cl)c(C(F)(F)F)c2)CC1 (as salt: HCl) [Example 9, 4-(4-Chloro-3-trifluoromethyl-phenyl)-1-propyl-piperidine]
melting point: 218 to 220 °C

CCCN1CCN(c2ccc(Cl)c([N+](=O)[O-])c2)CC1 (as salt: HCl) [Example 19, 1-(4-Chloro-3-nitro-phenyl)-4-propyl-piperazine]
melting point: 249 °C

CCCN1[C@H](C)CN(c2ccc(Cl)c(C(F)(F)F)c2)C[C@@H]1C (as salt: HCl) [Example 33, cis-4-(4-Chloro-3-trifluoromethyl-phenyl)-2,6-dimethyl-1-propyl-piperazine]
melting point: 256 °C

CCCN1[C@H](C)CN(c2ccc(F)c(C(F)(F)F)c2)C[C@@H]1C (as salt: HCl) [Example 34, cis-4-(4-Fluoro-3-trifluoromethyl-phenyl)-2,6-dimethyl-1-propyl-piperazine]
melting point: 221 °C

CCCN1[C@H](C)CN(c2ccc(Cl)c(Cl)c2)C[C@@H]1C (as salt: HCl) [Example 35, cis-4-(3,4-dichloro-phenyl)-2,6-dimethyl-1-propyl-piperazine]
melting point: 225 °C

CCCN1CCC(c2ccc(F)c(C(F)(F)F)c2)CC1 (as salt: HCl) [Example 43, 4-(4-Fluoro-3-trifluoromethylphenyl)-1-propyl-piperidine]
melting point: 195 to 197 °C

CCCN1CCC(c2cc(F)cc(C(F)(F)F)c2)CC1 (as salt: HCl) [Example 44, 4-(3-Fluoro-5-trifluoromethylphenyl)-1-propyl-piperidine]
melting point: 215 °C

CCCN1CCN(c2cccc(C(F)(F)F)c2)CC1 [1-propyl-4-(3-trifluoromethyl-phenyl)-piperazine, reference compound]
oral availability (F) [1]: 9,5%
behavioral inhibition (locomotor activity) ([2]; 50 μmol/kg s.c., n=4): 271±137 cm/60 min
3,4-dihydroxyphenyl-acetic acid in the striatum ([3]; 50 μmol/kg s.c.): 3358±162 ng/g tissue

CCCN1CCC(c2ccc(Cl)c(C(F)(F)F)c2)CC1 [Example 9, 4-(4-Chloro-3-trifluoromethyl-phenyl)-1-propyl-piperidine]
d-amphetamine induced hyperactivity ([4]; 50 μmol/kg s.c.): 3399±1247 cm/30 min
oral availability (F) [1]: 55%
locomotor activity of habituated rats ([5]; habituated rats, 50 μmol/kg s.c.): 1300±761 cm/60 min
spontaneous behavior (distance traveled) ([2]; 50 μmol/kg s.c.): 944±114 cm/30 min
3,4-dihydroxyphenyl-acetic acid in the striatum ([3]; 50 μmol/kg s.c.): 1680±136 ng/g tissue

CCCN1CCN(c2ccc(Cl)c([N+](=O)[O-])c2)CC1 [Example 19, 1-(4-Chloro-3-nitro-phenyl)-4-propyl-piperazine]
d-amphetamine induced hyperactivity ([4]; 100 μmol/kg s.c.): 3767±2332 cm/60 min
locomotor activity in nonpretreated rats ([2]; n=4): 266±89 cm/30 min
3,4-dihydroxyphenyl-acetic acid in the striatum ([3]; 100 μmol/kg s.c.): 1693±104 ng/g tissue

CCCN1[C@H](C)CN(c2ccc(F)c(C(F)(F)F)c2)C[C@@H]1C [Example 34, cis-4-(4-Fluoro-3-trifluoromethyl-phenyl)-2,6-dimethyl-1-propyl-piperazine]
spontaneous behavior in the habituated rat ([5]; habituated rat, 33 μmol/kg s.c., n=4): 919±143 cm/60 min
3,4-dihydroxyphenyl-acetic acid in the striatum ([3]; 33 μmol/kg s.c.): 1278±143 ng/g tissue

CCCN1[C@H](C)CN(c2ccc(Cl)c(Cl)c2)C[C@@H]1C [Example 35, cis-4-(3,4-dichloro-phenyl)-2,6-dimethyl-1-propyl-piperazine]
d-amphetamine induced hyperactivity ([4]; 100 μmol/kg s.c.): 6514±3374 cm/60 min

CCCN1CCC(c2ccc(F)c(C(F)(F)F)c2)CC1 [Example 43, 4-(4-Fluoro-3-trifluoromethylphenyl)-1-propyl-piperidine]
locomotor activity in nonpretreated rats ([2]; n=4): 540±128 cm/30 min
3,4-dihydroxyphenyl-acetic acid in the striatum ([3]; 100 μmol/kg s.c.): 1895±100 ng/g tissue
